# Laboratory results from patent publication US20140206629A1, “Stromal Derived Factor Inhibition And CXCR4 Blockade” (RHODE ISLAND HOSPITAL, priority 2011, published 2014).
# “Also recorded” adds a separate entry of the source.
# Legend:
# [1] = test system: IL-1β induced SDF-1 expression in human subacromial bursal cells; assay: SDF-1α protein (ELISA) in supernatants of IL-1β-treated cultured bursal cells with inhibitors; type: cell-based; settings: bursal cells treated with IL-1β 20 ng/mL plus inhibitor
# Method: (§1) Human subacromial bursal biopsy specimens were obtained as above. Tissues were washed with Hank's balanced salt solution (Gibco), minced with scissors, and resuspended in Dulbecco's minimum essential medium (DMEM, Gibco) containing 1 mg/ml collagenase, 0.15 mg/ml DNase, and 0.15 mg/ml hyaluronidase. The tissue was enzymatically digested for 2 hours at 37° C. and then passed through sterile gauze to remove any undigested fragments. Cells were seeded in 75 cm2 flasks with DMEM supplemented with 10% fetal bovine serum (FBS), 100 U/ml penicillin, 100 μg/ml streptomycin, and 0.1% fungizone (amphotericin B) and grown at 37° C. in a humidified atmosphere of 5% CO2 and 95% air. Subcultures were performed with Trypsin-EDTA treatment (Gibco).
# Subacromial bursal cells were cultured as above. After the first passage, cells were plated into 6-well plates and grown to 85% confluence. Wells were then treated (in triplicate) with IL-1β 20 ng/mL and respective inhibitors (AMD3100, T140 analog, dexamethasone or NSAID). After 24 hours, supernatants were collected and assayed for SDF-1α expression using Quantikineâ Human SDF-1α enzyme immunoassay kit (R & D System) according to the manufacturer's instructions. Standard curves were reconstituted using SDF-1α protein. The optical density of each well was determined using a microplate reader set to 450 nm wavelength. […]
# CCR5 = CCR5 (Homo sapiens, UniProt P51681); settings: cited from earlier work
# CCR5, sequence (P51681 whole entry): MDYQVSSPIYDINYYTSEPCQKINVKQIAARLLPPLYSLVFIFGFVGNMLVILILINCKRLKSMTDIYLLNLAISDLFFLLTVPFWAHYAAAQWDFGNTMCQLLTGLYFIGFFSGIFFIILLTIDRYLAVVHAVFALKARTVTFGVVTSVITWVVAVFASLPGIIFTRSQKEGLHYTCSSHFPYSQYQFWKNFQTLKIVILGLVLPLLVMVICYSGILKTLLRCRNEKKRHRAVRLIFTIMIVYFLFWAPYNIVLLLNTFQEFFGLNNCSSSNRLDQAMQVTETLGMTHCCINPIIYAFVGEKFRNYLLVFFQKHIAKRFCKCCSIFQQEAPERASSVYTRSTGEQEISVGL
# [2] = test system: human subacromial bursal cells; assay: Cell migration assay of bursal cells in response to SDF-1 stimulation; type: cell-based; settings: in the presence of CXCR4 inhibitor
# From the text: FIG. 6 is a bar graph showing cell migration assay of human subacromial bursal cells in the presence of CXCR4 inhibitors AMD3100 and T140.
# [3] = test system: IL-1β induced SDF-1 mRNA expression in human subacromial bursal cells; assay: SDF-1α mRNA (RT-PCR) in IL-1β-treated cultured bursal cells with inhibitors; type: cell-based; settings: bursal cells treated with IL-1β plus inhibitor
# Method: Subacromial bursal cells were cultured as above. First-passaged cells were treated with IL-1β and respective inhibitors as above. Total RNA was isolated using Qiagen RNeasy Mini Kit (Qiagen, Valencia, Calif.). First-strand cDNA was synthesized using 1 μg of total RNA and Superscript III™ First-Strand Synthesis System (Invitrogen). […] All PCR were performed in 25-μl reactions on a DNA Engine Opticon™ 2 Detection System (MJ Research, Hercules, Calif.) for 40 cycles in which each cycles consisted of 15 sec at 95° C., 15 sec at 60° C., and 20 sec at 72° C. Results were standardized to GAPDH housekeeping gene. Statistical analysis was performed using the student's t-test. […]
# [4] = test system: human subacromial bursal cells; assay: Cytokine stimulation of SDF-1α protein production in cultured bursal cells (ELISA); type: cell-based
# Method: as §1
# SDF-1 expression was induced by stimulating bursal cells with IL-1β. SDF-1 levels were measured in cell supernatants and mRNA levels were tested using real-time RT-PCR at various time points. SDF-1 expression increased with time and occurred in a dose-dependent fashion. […] (FIG. 3) These experiments were reproducible with cells grown from several different tissue samples.
# (§2) Subacromial bursa specimens were obtained from patients undergoing shoulder surgery. […] Early-passaged cells were then treated with cytokines ([…] and IL-6) and SDF-1α expression was measured by ELISA and RT-PCR.
# [5] = test system: human subacromial bursal cells; assay: Cytokine stimulation of SDF-1α mRNA expression in cultured bursal cells (RT-PCR); type: cell-based; settings: cytokine-treated bursal cells vs controls; maximal at 24 hours
# Method: as §1
# Subacromial bursal cells were cultured as above. […] SDF-1 mRNA was quantified with SDF-1 specific primers SDF-1FOR (5′-GATTGTAGCCCGGCT GAAGAA-3′) (SEQ ID NO: 11) and SDF-1BACK (5′-[…]-3′) (SEQ ID NO: 12). […]
# SDF-1 expression was induced by stimulating bursal cells with IL-1β. SDF-1 levels were measured in cell supernatants and mRNA levels were tested using real-time RT-PCR at various time points. […]
# as §2
# From the text for rat rotator cuff tendons: 58 male Lewis rat shoulders underwent surgery using an IACUC approved protocol. The infraspinatus tendon was transected at its insertion to create a tendon defect (FIG. 7). […] Animals were sacrificed at 3, 7, 14, 28 or 42 days. Eight uninjured rat shoulders were used as controls. Preconditioned for 5 cycles to 0.38 mm displacement in tension at a rate of 0.1 mm/s Stress relaxation test for 300 s duration at 0.38 displacement in tension Return to 0.2 N tension followed by a 300 s latency period Tension to failure at a displacement rate of 0.1 mm/s
Molecule,decrease of SDF-1α protein production/expression in supernatants [1] [%],binding to chemokine receptor CCR5 (CCR5),inflammation in the subacromial bursa (rat rotator cuff tendons; rat shoulder with experimentally induced rotator cuff injury),"maximum load in the infraspinatus bone-tendon complex compared to controls (PBS) (rat rotator cuff tendons; rat, osmotic minipump, 3, 7, 14, 28 or 42 days post injury)",bursal cell migration in response to SDF-1 stimulation [2],SDF-1α mRNA expression [3],increase in SDF-1α protein production/expression ([4]; cytokine-treated bursal cells),"SDF-1α production, maximal stimulation ([4]; exposure to 20 ng/ml IL-1β) [pg/10^4 cells]",increase in SDF-1α gene (mRNA) expression [5]
"c1cc(CN2CCCNCCNCCCNCC2)ccc1CN1CCCNCCNCCCNCC1 [AMD3100, 1,1′-[1,4-phenylenebis(methylene)]-bis-1,4,8,11-azatetradecane]",40,does not bind,reduced inflammation,No statistically significant differences,decreased,only a slight decrease,,,
C[C@@H]1C[C@H]2[C@@H]3CCC4=CC(=O)C=C[C@]4(C)[C@@]3(F)[C@@H](O)C[C@]2(C)[C@@]1(O)C(=O)CO [dexamethasone],87,,,,,,,,
IL-1β,,,,,,,more than five-fold increase,630,nearly five-fold increase; also recorded: more than five-fold increase
